Measured values reported in patent USRE48461E1, “Modulation of androgen receptor expression” (Ionis Pharmaceuticals, Inc., priority 2012, dated 2021).
Values joined by “and” are separate entries in the source; they are usually repeats but may differ in a detail not shown here. Identical values can stand only once. Oligonucleotides are written 5' to 3', each unit as a sugar letter and its base; * is a phosphorothioate linkage, no mark a phosphodiester; rarer units and linkages stand in square brackets, end groups in braces. Plain capitals give the bases only. k = constrained ethyl (cEt); [5mC] = 5-methylcytosine; d = 2'-deoxy (DNA)

What was measured:
AR mRNA [1] = test: Antisense inhibition of human AR in HuVEC cells, single concentration (electroporation, qRT-PCR RTS3559); type: cell-based; conditions: electroporation
Method in brief: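 AR mRNA levels were measured with human primer-probe set RTS3559 and adjusted for total RNA (RIBOGREEN). Cells were HuVEC, with each antisense oligonucleotide delivered by electroporation at one concentration.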

AR mRNA [2] = test: Dose-dependent antisense inhibition of human AR in HuVEC cells (electroporation, qRT-PCR RTS3559, IC50); type: cell-based; conditions: HuVEC
Method in brief: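 HuVEC cells dosed with antisense oligonucleotides by electroporation and treated approximately 16 hours. AR mRNA quantified by real-time qPCR with primer probe set RTS3559 and normalised to total RNA by RIBOGREEN; IC50 from dose-response.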

[3] = Table 27, 1,000 nM oligonucleotide, approximately 24 hours, relative to untreated control
[4] = Table 28, 1,000 nM oligonucleotide, approximately 24 hours, relative to untreated control
[5] = Table 36, electroporation, approximately 16 hours
[6] = Table 20, 500 nM oligonucleotide, approximately 24 hours, relative to untreated control
[7] = Table 33, electroporation, approximately 16 hours
[8] = Table 21, 500 nM oligonucleotide, approximately 24 hours, relative to untreated control
[9] = Table 34, electroporation, approximately 16 hours
[10] = Table 35, electroporation, approximately 16 hours

“584495 (kA*kT*kG*dG*dT*dT*dG*dT*d[5mC]*d[5mC]*dT*dG*dT*kA*k[5mC]*kA; antisense) [compound 584495]” was tested, and the “% inhibition” value (AR mRNA [1]; [3]) was 58%, the “% inhibition” value (AR mRNA [1]; [4]) was 53% and the “percent inhibition of AR, 46.9 nM” value (AR mRNA [2]; [5]) was 0%. The “percent inhibition of AR, 187.5 nM” value (AR mRNA [2]; [5]) was 14%, the “percent inhibition of AR, 750.0 nM” value (AR mRNA [2]; [5]) was 55% and the “percent inhibition of AR, 3000.0 nM” value (AR mRNA [2]; [5]) was 74%. For the same substance, the IC50 (AR mRNA [2]; [5]) was 650 nM.

For “549358 (kA*kT*kG*dG*dT*dG*d[5mC]*dT*dG*dG*d[5mC]*d[5mC]*dT*k[5mC]*kG*k[5mC]; antisense) [compound 549358]”, the “% inhibition” value (AR mRNA [1]; 500 nM ASO, ~24 h, Table 1) was 91%, the “percent inhibition of AR” value (AR mRNA [2]; 55.6 nM, ~16 h, Table 3) was 29% and the “percent inhibition of AR” value (AR mRNA [2]; 166.7 nM, ~16 h, Table 3) was 63%. For the same substance, the “percent inhibition of AR” value (AR mRNA [2]; 500.0 nM, ~16 h, Table 3) was 85%, the “percent inhibition of AR” value (AR mRNA [2]; 1500.0 nM, ~16 h, Table 3) was 95% and the IC50 (AR mRNA [2]; ~16 h, Table 3) was 141 nM.

“583866 (kT*k[5mC]*kT*dT*d[5mC]*dA*dG*dT*dG*d[5mC]*dT*d[5mC]*dT*kT*kG*k[5mC]; antisense) [compound 583866]” was tested, and the “% inhibition” value (AR mRNA [1]; [6]) was 32%, the “percent inhibition of AR, 46.9 nM” value (AR mRNA [2]; [7]) was 17% and the “percent inhibition of AR, 187.5 nM” value (AR mRNA [2]; [7]) was 48%. The “percent inhibition of AR, 750.0 nM” value (AR mRNA [2]; [7]) was 71%, the “percent inhibition of AR, 3000.0 nM” value (AR mRNA [2]; [7]) was 91% and the IC50 (AR mRNA [2]; [7]) was 240 nM.

“583864 (k[5mC]*kA*kG*dT*dG*d[5mC]*dT*d[5mC]*dT*dT*dG*d[5mC]*d[5mC]*kT*kG*k[5mC]; antisense) [compound 583864]” was tested, and the “% inhibition” value (AR mRNA [1]; [6]) was 46%, the “percent inhibition of AR, 187.5 nM” value (AR mRNA [2]; Table 32, electroporation, approximately 16 hours, 0.1875 µM) was 49% and 47% and the “percent inhibition of AR, 750.0 nM” value (AR mRNA [2]; Table 32, electroporation, approximately 16 hours, 0.75 µM) was 72% and 62%. The “percent inhibition of AR, 3000.0 nM” value (AR mRNA [2]; Table 32, electroporation, approximately 16 hours) was 85%.

“549379 (kG*k[5mC]*kT*d[5mC]*d[5mC]*d[5mC]*dG*d[5mC]*d[5mC]*dT*d[5mC]*dG*d[5mC]*k[5mC]*kG*k[5mC]; antisense) [compound 549379]” was tested, and the “% inhibition” value (AR mRNA [1]; 500 nM ASO, ~24 h, Table 1) was 86%, the “percent inhibition of AR” value (AR mRNA [2]; 55.6 nM, ~16 h, Table 3) was 11% and the “percent inhibition of AR” value (AR mRNA [2]; 166.7 nM, ~16 h, Table 3) was 51%. The “percent inhibition of AR” value (AR mRNA [2]; 500.0 nM, ~16 h, Table 3) was 68%, the “percent inhibition of AR” value (AR mRNA [2]; 1500.0 nM, ~16 h, Table 3) was 88% and the IC50 (AR mRNA [2]; ~16 h, Table 3) was 237 nM.

“583933 (k[5mC]*kA*kG*d[5mC]*dG*dG*dG*dT*dT*d[5mC]*dT*d[5mC]*d[5mC]*kA*kG*k[5mC]; antisense) [compound 583933]” was tested, and the “% inhibition” value (AR mRNA [1]; [8]) was 38%, the “percent inhibition of AR, 46.9 nM” value (AR mRNA [2]; [9]) was 22% and the “percent inhibition of AR, 187.5 nM” value (AR mRNA [2]; [9]) was 25%. For the same substance, the “percent inhibition of AR, 750.0 nM” value (AR mRNA [2]; [9]) was 56%, the “percent inhibition of AR, 3000.0 nM” value (AR mRNA [2]; [9]) was 81% and the IC50 (AR mRNA [2]; [9]) was 410 nM.

For “584469 (kT*kT*kT*dG*dG*dT*dA*dA*d[5mC]*dA*dT*dT*dA*kG*kG*k[5mC]; antisense) [compound 584469]”, the “% inhibition” value (AR mRNA [1]; [3]) was 74%, the “% inhibition” value (AR mRNA [1]; [4]) was 63% and the “percent inhibition of AR, 46.9 nM” value (AR mRNA [2]; [5]) was 13%. The “percent inhibition of AR, 187.5 nM” value (AR mRNA [2]; [5]) was 46%, the “percent inhibition of AR, 750.0 nM” value (AR mRNA [2]; [5]) was 73% and the “percent inhibition of AR, 3000.0 nM” value (AR mRNA [2]; [5]) was 89%. For the same substance, the IC50 (AR mRNA [2]; [5]) was 220 nM.

For “583932 (kT*k[5mC]*kT*d[5mC]*d[5mC]*dA*dG*d[5mC]*dT*dT*dG*dA*dT*kG*k[5mC]*kG; antisense) [compound 583932]”, the “% inhibition” value (AR mRNA [1]; [8]) was 39%, the “percent inhibition of AR, 46.9 nM” value (AR mRNA [2]; [9]) was 9% and the “percent inhibition of AR, 187.5 nM” value (AR mRNA [2]; [9]) was 35%. For the same substance, the “percent inhibition of AR, 750.0 nM” value (AR mRNA [2]; [9]) was 64%, the “percent inhibition of AR, 3000.0 nM” value (AR mRNA [2]; [9]) was 81% and the IC50 (AR mRNA [2]; [9]) was 380 nM.

In the case of “584145 (kA*kT*kG*dG*dG*dA*dG*dT*dA*dA*d[5mC]*dT*dT*kT*kT*kG; antisense) [compound 584145]”, the “% inhibition” value (AR mRNA [1]; Table 24, 1,000 nM oligonucleotide, approximately 24 hours, relative to untreated control) is reported as 76%, the “percent inhibition of AR, 46.9 nM” value (AR mRNA [2]; [10]) is reported as 6% and the “percent inhibition of AR, 187.5 nM” value (AR mRNA [2]; [10]) is reported as 32%. For the same substance, the “percent inhibition of AR, 750.0 nM” value (AR mRNA [2]; [10]) was 63%, the “percent inhibition of AR, 3000.0 nM” value (AR mRNA [2]; [10]) was 88% and the IC50 (AR mRNA [2]; [10]) was 360 nM.
